According to patent US20070015737A1, “Compounds for inhibiting diseases and preparing cells for transplantation” (Neurochem (International) Limited, priority 1999, published 2007):
“And” between values parts separate entries of the source, which are not always exact repeats. Identical values can stand only once.

Assays:
IAPP [1] = target: T1, IAPP (Homo sapiens, UniProt P10997); assay: Rate of amyloid fibril formation by Thioflavine T spectroscopy (Example 1); assay type: biochemical; conditions: Thioflavine T fluorescence
T1 sequence (P10997 34-70 limits assumed): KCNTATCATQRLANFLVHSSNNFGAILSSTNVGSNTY
Description: Determination of the Rate of Amyloid Fibril Formation by Thioflavine T Spectroscopy
Detection of ThT fluorescence can be used as a sensitive assay for amyloid fibril formation under different conditions. This assay has been used in experiments to determine the effects of compounds of the invention on amyloid fibril formation.
Human IAPP was dissolved in 40% trifluoroethanol and freeze-dried into conveniently-sized aliquots. IAPP was prepared immediately before the measurements by dissolving in 40% 1,1,1,3,3,3-hexafluoro-2-propanol (HFIP) in water to maintain the peptide in alpha helical conformation and soluble. A stock solution of ThT (2.5 mM) was prepared, 7.9 mg in 10 mL Tris-HCl pH 7.0 and filtered (0.22 μm). Solutions were kept in the dark until use. Fluorescence was examined at 440 nm excitation (slit 5 nm), and emission at 482 nm (slit 10 nm) with stirring. […] of ThT stock (final concentration 62.5 μM) was added to peptide sample and made up to 1 mL in the cuvette. The sample was stirred for 5 min. before taking a reading. Measurements were made at an initial time point (5 min. from sample preparation), at intervals over the next 4-6 h and after overnight incubation at room temperature.

IAPP [2] = target: T1, IAPP; assay: Circular dichroism analysis of β-sheet conformation (Example 2); assay type: biochemical; set-up: add 10 μL of 10 mg/mL IAPP stock solution (final 100 μg peptide); conditions: changes in ellipticity at 218 nm (β-sheet conformation); peptide:compound 1:10
Description: Circular dichroism analysis was conducted to confirm the activity of certain therapeutic compounds in preventing or inhibiting IAPP-associated fibril formation in accordance with the present disclosure by determining the presence or absence of β-sheet conformation.
The assay, a co-incubation procedure, examines the ability of a compound or substance to inhibit the assembly of amyloid fibrils, e.g., to test for the presence of the amyloidotic b-sheet conformation in the presence of soluble IAPP. Samples are run in the presence and absence (i.e., water alone) of buffering agent, which is done to determine if competitive effects are seen with the ionic buffer (usually phosphate).
Add components used at a molar ratio of 1:10 [peptide:compound]; add 10 μL of 10 mg/mL IAPP stock solution (final 100 μg peptide) to the aqueous solution containing compound to a final volume of 400 μl. The pH of the final assay solution is measured to ensure there is no fluctuation and the spectrum is accumulated using the parameters as shown above.
Add desired amount of compound to achieve a 1:10 molar ratio in 10 mM phosphate buffer, pH 7. Add 10 μL of 10 mg/mL IAPP stock solution (final peptide 100 μg) to the phosphate buffered solution containing the compound and bring to a final volume of 400 μL. The pH of the final assay solution is measured to ensure there is no fluctuation and the spectrum is accumulated using the parameters as shown above.
In both assays, a control sample is run with each test group. This control contains peptide only in water or buffer at a similar final volume of 400 μl. Spectra for the control are collected initially (first run) and at the end of the test (final run) to ensure that the peptide has not undergone extensive aggregation during the course of the assay. Spectra for the controls are used to compare with the measurements obtained with the treated samples.
Make fresh 1 mg/mL stock solution of IAPP in 10 mM phosphate buffer, pH 7. Add desired amount of compound to achieve a 1:10 molar ratio in 10 mM phosphate buffer, pH 7. Incubate for 3 days at room temperature. Make up to final volume of 400 μL with 10 mM phosphate buffer, pH 7. The pH of the final assay solution is measured to ensure there is no fluctuation and the spectrum is accumulated using the parameters as shown above. A similar control is run for comparative purposes.
Plots of the spectra (control and treated) are individually assembled and the changes in ellipticity at 218 nm are examined. This minimum is directly correlated with the amount of peptide in β-sheet conformation present in the sample. Changes in either a positive or negative direction are noted and a relative value (“active” or “not active”) assigned to the compound as a measure of activity.

IAPP [3] = target: T1, IAPP; assay: Circular dichroic spectroscopy (Example 6); assay type: biochemical
Description: Circular Dichroic Spectroscopy
Human IAPP was prepared in 100% HFIP at 1 mg/ml filtered through a 0.31 μm filter, freeze dried in aliquots, resuspended in 20% HFIP and water, and filtered before analysis. The circular dichroic spectroscopy was performed in the same manner as described in Hubbard et al (1991) Biochem J, 275, 785-8. Samples were analysed immediately and after 24 h incubation with candidate substances i, iii, iv and x. […] After 24 h incubation the molecular conformation of IAPP (CNTL) was converted to β-conformation. […] This is prevented by the candidate compounds.

Human IAPP (hIAPP) = target: T2, Human IAPP (hIAPP) (Homo sapiens, UniProt P10997); assay: ELISA assay for quantitative determination of fibril formation (Example 4); assay type: biochemical; conditions: for proportion of non-fibrillar IAPP in the supernatant: IAPP 20 μM, inhibitor:IAPP molar ratio 10:1, compared to control
T2 construct: Human IAPP (hIAPP) was synthesised by solid state synthesis (Advanced Biotechnologies, UK); purchased Advanced Biotechnologies, UK; host or cells: chemical solid-phase synthesis
T2 sequence (P10997 34-70 limits assumed): T1 sequence (P10997 34-70 limits assumed)
Description: ELISA Assay for Quantitative Determination of Fibril Formation
Human IAPP (hIAPP) was synthesised by solid state synthesis (Advanced Biotechnologies, UK). Human IAPP forms fibrils immediately in aqueous media. Aliquots of IAPP in water (800 μg/ml) were stored frozen at −20° C. until use. These samples contain small numbers of fibrils visible with electron microscopy (em).
Two sets of samples containing IAPP (20 μM) with or without inhibitors (at a molar ratio of 10:1 with IAPP, (20 μM)) were prepared on day 1 in Tris buffer. One set was centrifuged, the supernatant removed and frozen immediately at −20° C. (Time zero time point). The other set was incubated overnight at room temp with shaking (time 24 h time point). On day 2 these samples were spun and supernatant removed to determine the proportion of non-fibrillar IAPP.
To assay IAPP in the supernatant both sets of samples were serially diluted in bicarbonate coating buffer, added to ELISA wells and incubated overnight. Plates were washed in phosphate buffer containing Tween (PBS/Tw)×3. Diluted antiserum raised against human IAPP was incubated on the plate for 90 minutes at 37° C. Following washing in PBS/Tw, alkaline phosphatase conjugated anti-rabbit antisera was incubated for 90 mins. Following washing in PBS/Tw, alkaline phosphate substrate was added and colour allowed to develop for 30 mins. Optical density was read at 405 nm.
Data from all samples was calculated to determine changes of IAPP concentration in the supernatant induced by the candidate substance immediately (i.e. at time zero) or after 24 h incubation. Data in FIG. 1 is expressed as the proportion of non-fibrillar IAPP in the supernatant of test samples compared to control at both time points.

[4] = system: amyloid in transgenic islets cells expressing human IAPP; assay: Electron micrograph analysis of amyloid in cultured transgenic islets; assay type: cell-based, mouse
Excerpt: These are used as a test system for determining the toxicity and effect of putative amyloid inhibitors in short term culture systems. Whereas normal mice can be used to determine toxicity of compounds added to the media, amyloid fibrils form only in murine islets isolated from transgenic mice expressing the gene for human IAPP (transgene incorporation was confirmed by PCR). These islets are isolated in a similar way to that of human islets and are handpicked from the digest and cultured in 16.7 mM glucose as above. Amyloid fibrils formed within 4 days of culture and can be quantified by quantitative electron microscopy. […] The cells were cultured for 6 days in 11.1 mM glucose and RPMI.
Transgenic islets cells were cultured as described above, for 7 days and the media changed every two days. At the end of the culture period the islets were fixed in 2.5% glutaraldehyde in 0.1M sodium phosphate buffer (pH 7.2) for one hour and post-fixed in 1% osmium tetroxide, and embedded in Spurr's resin (Taab Laboratories, Reading, UK) or contrast enhanced in 2% Uranyl Acetate, dehydrated in methanol and embedded in LRGold (Taab, as previous). Ultrathin sections of the islets were mounted on formvar coated nickel grids. Amyloid was identified by immunogold labelling of tissue sections with an antisera raised to human IAPP 1-37, human IAPP 17-37, rat IAPP 1-37 and goat anti-rabbit gold conjugate (10 nm diameter) either from Biocell, Cardiff, UK or Sigma or by use of protein A gold. Grids were examined in a JOEL electron microscrope at an excitation voltage of 80 kV.
Images of 3 islet sections at a low magnification were prepared. A montage of each islet was made from electron micrographs and the areas of both intra and extra cellular amyloid identified and marked. The total islet area, together with the area of intra and extra cellular amyloid was then calculated using image analysis (Kontron Image Processor). 3 separate islets were examined for each condition.

[5] = after 24 h incubation, IAPP alone converted to β-conformation
[6] = Average of 3 islets, 7 days culture
[7] = individual islets 1-3, 7 days culture

| Compound | Activity (IAPP [2]) | IAPP-associated fibril assembly (IAPP [1]) | proportion of non-fibrillar IAPP in the supernatant (Human IAPP (hIAPP)) | also measured |
| --- | --- | --- | --- | --- |
| c1ccc2c(c1)CCNC2 [1,2,3,4-tetrahydroisoquinoline] |  | inhibit or prevent IAPP-associated fibril assembly |  |  |
| CN(C)CCCS(=O)(=O)O [3-dimethylamino-1-propanesulfonic acid] | Active | inhibit or prevent IAPP-associated fibril assembly |  |  |
| COc1ccc(S(=O)(=O)O)c2cccnc12 [8-methoxyquinoline-5-sulfonic acid] |  | inhibit or prevent IAPP-associated fibril assembly |  |  |
| O=S(=O)(O)NC1CCCCC1 [cyclohexylsulfamic acid] |  | inhibit or prevent IAPP-associated fibril assembly |  |  |
| O=S(=O)(O)CCCNCCCO [i, 3-(3-hydroxy-1-propyl)amino-1-propanesulfonic acid] |  |  | increase the proportion of non-fibrillar IAPP in the supernatant | molecular conformation of IAPP (CD spectra) (IAPP [3]; [5]): remained in α-conformation; molecular conformation of IAPP (CD spectra) (IAPP [3]; time zero): typical CD spectra for α-conformation |
| c1ccc2c(c1)CCNC2 [iii, 1,2,3,4-tetrahydroisoquinoline] | Active |  | increase the proportion of non-fibrillar IAPP in the supernatant | molecular conformation of IAPP (CD spectra) (IAPP [3]; [5]): remained in α-conformation; molecular conformation of IAPP (CD spectra) (IAPP [3]; time zero): typical CD spectra for α-conformation |
| NCC(O)CS(=O)(=O)O (stereo not shown) [ix, 3-amino-2-hydroxy-1-propanesulfonic acid] |  |  | increase the proportion of non-fibrillar IAPP in the supernatant |  |
| N[C@@H](COP(=O)(O)O)C(=O)O [v, O-Phospho-L-serine] | Active | inhibit or prevent IAPP-associated fibril assembly | increase the proportion of non-fibrillar IAPP in the supernatant |  |
| COc1ccc(S(=O)(=O)O)c2cccnc12 [vii, 8-methoxyquinoline-5-sulfonic acid] | Active |  | increase the proportion of non-fibrillar IAPP in the supernatant | Extra amyloid % of total [4, 6]: 1.6%; Extra amyloid area [4, 6]: 86.8 μm^2; Extra amyloid % of total [4, 7]: 1.9% and 0.5% and 3.4%; Extra amyloid area [4, 7]: 98.73 μm^2 and 37.9 μm^2 and 123.99 μm^2 |
| O=S(=O)(O)CCCN1CC=C(c2ccccc2)CC1 [viii, 4-phenyl-1-(3′ sulfopropyl)-1,2,3,6-tetrahydropyridine] | Active | inhibit or prevent IAPP-associated fibril assembly | increase the proportion of non-fibrillar IAPP in the supernatant |  |
| CN(C)CCCS(=O)(=O)O [x, 3-dimethylamino-1-propanesulfonic acid] |  |  | increase the proportion of non-fibrillar IAPP in the supernatant | molecular conformation of IAPP (CD spectra) (IAPP [3]; [5]): remained in α-conformation; molecular conformation of IAPP (CD spectra) (IAPP [3]; time zero): typical CD spectra for α-conformation; time point at which the increase of non-fibrillar IAPP was greater (Human IAPP (hIAPP); time zero versus time 24 h): greater at time zero |

More lines, main results first:

| Activity (IAPP [2]) | Compound | IAPP-associated fibril assembly (IAPP [1]) | proportion of non-fibrillar IAPP in the supernatant (Human IAPP (hIAPP)) | also measured |
| --- | --- | --- | --- | --- |
| Active | O=S(=O)(O)CCCNCCCO [3-(3-hydroxy-1-propyl)amino-1-propanesulfonic acid] | inhibit or prevent IAPP-associated fibril assembly |  |  |
| Active | NCC(O)CS(=O)(=O)O (stereo not shown) [3-amino-2-hydroxy-1-propanesulfonic acid] | inhibit or prevent IAPP-associated fibril assembly |  |  |
| Active | O=S(=O)(O)NC1CCCCC1 [iv, Cyclohexylsulfamic acid] |  | increase the proportion of non-fibrillar IAPP in the supernatant | molecular conformation of IAPP (CD spectra) (IAPP [3]; [5]): remained in α-conformation; molecular conformation of IAPP (CD spectra) (IAPP [3]; time zero): typical CD spectra for α-conformation |
